Reference: ChEMBL document CHEMBL5365529, “Construction and Evaluation of Novel Dual-function Antifungal Inhibitors and Covalent Organic Framework Carriers Based on the Infection Microenvironment” (J Med Chem, 2023)
pIC50, pKd: −log10 of the molar value. Converted amounts (≈) assume the structure as drawn. The source made the active and inactive calls. The calls are words filed in the database; no cut-off is given here.

How the values were obtained:
[1] = target: T1, Lanosterol 14-alpha demethylase (Candida albicans (strain SC5314 / ATCC MYA-2876) (Yeast), UniProt P10613); test: Inhibition of CYP51 in Candida albicans SC5314 assessed as unknown sterol level at 4 ug/ml incubated for 16 hrs by GC-MS analysis (reference value: 5.35 %); set-up: scale not given: the % may be the effect or the level left; details: at 4 µg/mL
T1 sequence (P10613 whole entry): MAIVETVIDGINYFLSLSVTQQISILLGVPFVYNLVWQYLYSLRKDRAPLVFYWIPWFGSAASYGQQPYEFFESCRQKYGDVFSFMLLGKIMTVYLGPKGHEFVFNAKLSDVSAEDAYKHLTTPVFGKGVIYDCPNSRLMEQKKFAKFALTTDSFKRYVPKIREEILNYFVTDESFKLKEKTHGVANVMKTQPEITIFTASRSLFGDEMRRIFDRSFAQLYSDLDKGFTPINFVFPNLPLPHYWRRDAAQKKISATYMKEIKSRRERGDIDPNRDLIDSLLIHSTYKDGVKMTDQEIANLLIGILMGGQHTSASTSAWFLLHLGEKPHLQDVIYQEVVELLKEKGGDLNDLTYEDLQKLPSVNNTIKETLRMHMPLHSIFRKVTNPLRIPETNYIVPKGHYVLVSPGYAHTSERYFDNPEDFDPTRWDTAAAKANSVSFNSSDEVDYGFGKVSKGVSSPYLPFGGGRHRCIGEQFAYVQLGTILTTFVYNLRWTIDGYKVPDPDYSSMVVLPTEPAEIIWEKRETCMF

[2] = target: T1, Lanosterol 14-alpha demethylase; test: Inhibition of CYP51 in Candida albicans SC5314 assessed as lanosterol level at 4 ug/ml incubated for 16 hrs by GC-MS analysis relative to control; set-up: scale not given: the % may be the effect or the level left; details: at 4 µg/mL
[3] = target: T2, Programmed cell death 1 ligand 1 (Homo sapiens, UniProt Q9NZQ7); test: Inhibition of human PD-L1 incubated for 15 mins by ELISA method
T2 sequence (Q9NZQ7 whole entry): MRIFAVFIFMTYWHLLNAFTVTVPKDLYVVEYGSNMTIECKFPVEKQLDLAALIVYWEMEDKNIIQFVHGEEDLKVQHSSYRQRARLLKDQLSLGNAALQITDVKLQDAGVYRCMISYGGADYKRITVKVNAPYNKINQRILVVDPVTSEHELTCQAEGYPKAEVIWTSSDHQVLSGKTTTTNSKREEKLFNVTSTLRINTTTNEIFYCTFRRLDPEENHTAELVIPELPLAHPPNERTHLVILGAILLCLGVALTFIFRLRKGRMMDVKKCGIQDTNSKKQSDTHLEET

[4] = tested on: Candida albicans; test: Antifungal activity against Candida albicans SC5314 assessed as fungal growth inhibition incubated for 72 hrs by CLSI based susceptibility test; type: functional
[5] = tested on: Nakaseomyces glabratus; test: Antifungal activity against Candida glabrata assessed as fungal growth inhibition incubated for 72 hrs by CLSI based susceptibility test; type: functional
[6] = tested on: Candida tropicalis; test: Antifungal activity against Candida tropicalis ATCC 1369 assessed as fungal growth inhibition incubated for 72 hrs by CLSI based susceptibility test; type: functional
[7] = tested on: Cryptococcus neoformans; test: Antifungal activity against Cryptococcus neoformans ZKCC 2209 assessed as fungal growth inhibition incubated for 72 hrs by CLSI based susceptibility test; type: functional
[8] = tested on: Candida albicans; test: Antifungal activity against FLC-resistant Candida albicans CaR assessed as fungal growth inhibition incubated for 72 hrs by CLSI based susceptibility test; type: functional
[9] = tested on: Candida albicans; test: Antifungal activity against FLC-resistant Candida albicans 904 assessed as fungal growth inhibition incubated for 72 hrs by CLSI based susceptibility test; type: functional
[10] = target: T1, Lanosterol 14-alpha demethylase; test: Inhibition of CYP51 in Candida albicans SC5314 using lanosterol as substrate incubated for 60 mins by HPLC analysis
[11] = target: T2, Programmed cell death 1 ligand 1; test: Binding affinity to PD-L1 (unknown origin) immobilized on carboxy chip assessed as dissociation constant by SPR analysis
[12] = tested on: Candida albicans; test: Induction of apoptosis in Candida albicans SC5314 assessed as increase in ROS level at 1 uM/ml incubated for 48 hrs by fluorescence microscopy; type: functional, organism-based
[13] = tested on: Candida albicans; test: Induction of mitochondrial membrane depolarization in Candida albicans SC5314 by JC-1 staining based flow cytometry (reference value: 12.51 %); type: functional
[14] = tested on: Candida albicans; test: Induction of apoptosis in Candida albicans SC5314 assessed as necrotic cells incubated for 48 hrs by annexin V-FITC/PI staining based flow cytometry (reference value: 2.12 %); type: functional
[15] = tested on: Candida albicans; test: Induction of morphological changes in Candida albicans SC5314 assessed as decrease in cell wall thickness measured after 48 hrs by TEM analysis; type: functional, organism-based
[16] = tested on: Candida albicans; test: Induction of morphological changes in Candida albicans SC5314 assessed as change in cell structure measured after 48 hrs by TEM analysis; type: functional, organism-based
[17] = tested on: Candida albicans; test: Induction of morphological changes in Candida albicans SC5314 assessed as reduction in cytoplasmic density measured for 96 to 144 hrs by TEM analysis; type: functional, organism-based; details: time 96-144 hrs
[18] = tested on: Candida albicans; test: Induction of morphological changes in Candida albicans SC5314 assessed as edematous vacuoles measured for 96 to 144 hrs by TEM analysis; type: functional, organism-based; details: time 96-144 hrs
[19] = tested on: Candida albicans; test: Induction of morphological changes in Candida albicans SC5314 assessed as necrotic cellular debris measured for 96 to 144 hrs by TEM analysis; type: functional, organism-based; details: time 96-144 hrs
[20] = Drug uptake in Candida albicans SC5314 assessed as increase in green fluorescence by imaging analysis; type: ADME
[21] = Drug uptake in Candida albicans SC5314 assessed as increase in blue fluorescence by hoechst 33256 staining based imaging analysis; type: ADME
[22] = tested on: Candida albicans; test: Antifungal activity against Candida albicans 901 infected in BALB/c mouse assessed as restoration of infected tissue morphology at 0.5 ug/g administered 6 times measured after 4 days by H and E staining based analysis; type: functional, organism-based; details: dose 0.5 µg/g, time 4.0 day
[23] = tested on: Candida albicans; test: Antifungal activity against Candida albicans 901 infected in BALB/c mouse assessed as disappearance of nuclear aggregation in lesion at 0.5 ug/g administered 6 times measured after 4 days by H and E staining based analysis; type: functional, organism-based; details: dose 0.5 µg/g, time 4.0 day
[24] = tested on: Candida albicans; test: Antifungal activity against Candida albicans 901 infected in BALB/c mouse assessed as appearance of necrotic cell fragments in interstitial space at 0.5 ug/g administered 6 times measured after 4 days by H and E staining based analysis; type: functional, organism-based; details: dose 0.5 µg/g, time 4.0 day
[25] = tested on: Candida albicans; test: Antifungal activity against Candida albicans 901 infected in BALB/c mouse assessed as inhibition of fungal proliferation at 0.5 ug/g administered 6 times measured after 4 days by Masson staining based analysis; type: functional, organism-based; details: dose 0.5 µg/g, time 4.0 day
[26] = tested on: Candida albicans; test: Antifungal activity against Candida albicans 901 infected in BALB/c mouse assessed as inhibition of fungal proliferation at 0.5 ug/g administered 6 times measured after 4 days by GMS staining based analysis; type: functional, organism-based; details: dose 0.5 µg/g, time 4.0 day
[27] = tested on: Candida albicans; test: Antifungal activity against Candida albicans 901 infected in BALB/c mouse assessed as decrease in collagen fiber content at 0.5 ug/g administered 6 times measured after 4 days by Masson staining based analysis; type: functional, organism-based; details: dose 0.5 µg/g, time 4.0 day
[28] = tested on: Candida albicans; test: Antifungal activity against Candida albicans 901 infected in BALB/c mouse assessed as decrease in collagen fiber content at 0.5 ug/g administered 6 times measured after 4 days by GMS staining based analysis; type: functional, organism-based; details: dose 0.5 µg/g, time 4.0 day
[29] = Toxicity in BALB/c mouse infected with Candida albicans 901 assessed as pathological change in heart at 0.5 ug/g administered 6 times measured after 4 days by H and E staining based analysis; type: tissue-based; details: in vivo, 96 h, dose 0.5 µg/g, time 4 day
[30] = Toxicity in BALB/c mouse infected with Candida albicans 901 assessed as pathological change in lung at 0.5 ug/g administered 6 times measured after 4 days by H and E staining based analysis; type: tissue-based; details: in vivo, 96 h, dose 0.5 µg/g, time 4 day
[31] = Toxicity in BALB/c mouse infected with Candida albicans 901 assessed as pathological change in kidney at 0.5 ug/g administered 6 times measured after 4 days by H and E staining based analysis; type: tissue-based; details: in vivo, 96 h, dose 0.5 µg/g, time 4 day
[32] = Toxicity in BALB/c mouse infected with Candida albicans 901 assessed as plasma CRE level at 0.5 ug/g administered 6 times measured after 4 days (reference value: 18.48 +/- 2.7 umol/L); details: in vivo, 96 h, dose 0.5 µg/g, time 4 day
[33] = Toxicity in BALB/c mouse infected with Candida albicans 901 assessed as plasma BUN level at 0.5 ug/g administered 6 times measured after 4 days (reference value: 20.4 +/- 1.5 mmol/L); details: in vivo, 96 h, dose 0.5 µg/g, time 4 day
[34] = tested on: Candida albicans; test: Induction of immunity in BALB/c mouse infected with Candida albicans 901 assessed as decrease in PD-L1 level at 0.5 ug/g administered 6 times measured after 4 days by Western blot analysis; type: functional, organism-based; details: dose 0.5 µg/g, time 4.0 day
[35] = tested on: Candida albicans; test: Induction of immunity in BALB/c mouse infected with Candida albicans 901 assessed as decrease in PD-L1 level at 0.5 ug/g administered 6 times measured after 4 days by IHC analysis; type: functional, organism-based; details: dose 0.5 µg/g, time 4.0 day
[36] = tested on: Candida albicans; test: Induction of immunity in BALB/c mouse infected with Candida albicans 901 assessed as increase in CD3 positive level at 0.5 ug/g administered 6 times measured after 4 days by IHC analysis; type: functional, organism-based; details: dose 0.5 µg/g, time 4.0 day
[37] = tested on: Candida albicans; test: Induction of immunity in BALB/c mouse infected with Candida albicans 901 assessed as increase in CD8 positive level at 0.5 ug/g administered 6 times measured after 4 days by IHC analysis; type: functional, organism-based; details: dose 0.5 µg/g, time 4.0 day

Compound: COC(=O)[C@@H](Cn1cncn1)NCc1cccc(OCc2cccc(-c3ccccc3)c2C)c1
- Activity [1]: 6.65%
- Activity [2]: 10.47%
- pIC50 [3]: 7.68
- MIC50 [4]: 0.125 µg/mL (≈ 0.274 µM)
- MIC50 [5]: 0.125 µg/mL (≈ 0.274 µM)
- MIC50 [6]: 0.5 µg/mL (≈ 1.1 µM)
- MIC50 [7]: 0.5 µg/mL (≈ 1.1 µM)
- MIC50 [8]: 2 µg/mL (≈ 4.38 µM)
- MIC50 [9]: 2 µg/mL (≈ 4.38 µM)
- pIC50 [10]: 6.77
- pKd [11]: 7.82
- Activity [12]: Active
- Activity [13]: 34.74%
- Activity [14]: 25.91%
- Activity [15]: Active
- Activity [16]: Active
- Activity [17]: Active
- Activity [18]: Active
- Activity [19]: Active
- Drug uptake [20]: Active
- Drug uptake [21]: Active
- Activity [22]: Active
- Activity [23]: Active
- Activity [24]: Active
- inhibition [25]: Active
- inhibition [26]: Active
- Activity [27]: Active
- Activity [28]: Active
- Activity [29]: Non-Toxic
- Activity [30]: Non-Toxic
- Activity [31]: Non-Toxic
- Activity [32]: 10.91 µmol/L
- Activity [33]: 24.7 mmol/L
- Activity [34]: Active
- Activity [35]: Active
- Activity [36]: Active
- Activity [37]: Active
